These results are taken from patent EP0315782A2, “Method for the production of proteins” (priority 1987, dated 1989).

SMILES strings stand for the structures.

Assay [1] deals with CHO-Zellen. The experiment in a line: t-PA production in transformed CHO cells, medium with 7.5% FKS, supernatant, direct chromogenic assay (DCA). The assay is classed as cell-based, chinesische Hamster. The note with it: for activation at 1 µM: read-out: % Steigerung der t-PA-Synthese. The text has this: (§1) Der Vektor für die t-PA-Produktion wurde in einem Subklon, CHO-K1-DUX B11, integriert (Urlaub et al., Proceedings of the National Academy of Science, USA, 77: 4216-4220, 1980). Diese Zell-Linie, eine Dihydrofolat Reduktase negative Mutante (DHFR-), ist für eine DHFR-abhängige Selektion der transfizierten Zellklone geeignet. Der Vektor für die humane c-DNA kann ein bekannter Plasmid-Vektor pBR-322 oder deren Abkömmling von Escherichia coli sein. Die Promotorregion für das in Frage kommende Gen und für das DHFR-Gen stammt aus SV 40 und die Terminationsregion für beide Gene von einem Hepatitis B-Oberflächenantigen. In den Beispielen wurden CHO-K1-DUX B11-Zellen, die durch die Plasmide pETPER oder pEPEFR transformiert sind, verwendet (siehe EP-A 0117059).
(§2) Die Zellkulturen werden bei 37°C in einem Hereaus-Brutschrank inkubiert und mit einem Kohlendioxid-Luftgemisch von 7,5% CO₂ in einer relativen Luftfeuchtigkeit von 100% belüftet. Je nach Verfahrensansatz werden unterschiedliche Kulturgefäße benutzt: Spinnergefäße für 100-1000 ml Medium, Roux-Schalen (Nunc) 175 cm² (70-100 ml Medium), 75 cm² (30-50 ml Medium), 25 cm² (7-10 ml Medium) und Mehrfachkulturschalen von Costar mit 2 cm² für 1 ml Kulturen. Für die Stammhaltung werden die Zellen in einer Dichte von 0,2-0,3 x 10⁶ Zellen/ml eingesetzt und alle 2-3 Tage subkloniert.
(§3) Die Protein-Produktion stimulierenden Substanzen können zu den verschiedenen Zeitpunkten jeweils in einer 1:100 Verdünnung zugegeben werden, d.h. sie wurden zuerst in Medium gelöst oder, wenn sie schwerlöslich sind, erst in Äthylalkohol gelöst und danach in Medium zugesetzt und dann das diese Substanz enthaltende Medium dem zellenthaltenden Medium im Verhältnis 1:100 v/v zugegeben.
(§4) In den folgenden Beispielen wurden, um die Stimulierung der t-PA-Synthese hervorzurufen, Zellen einer exponentiell wachsenden Kultur entnommen und in Plastikröhrchen (Falcon) 10 Min. bei 1000 x g in einer Beckmann T 3-6 Zentrifuge abzentrifugiert. Nach Dekantieren des Überstandes wurde das Zellpellet mit frischem Medium resuspendiert.
(§5) Für die Produktion von t-PA in serumhaltigem Medium wurde als frisches Medium F12/DMEM + 7,5% FKS + Gentamycin verwendet. Die resultierende Suspension kann in 2 cm² 24 Wells-Platten bei einer Zelldichte von 0,2-0,3 x 10⁶ Zellen/ml angesetzt werden.
(§6) Aliquots von Zellüberständen und Zellextrakten wurden zu verschiedenen Zeitpunkten abgenommen bzw. hergestellt. Die Messung der Proben erfolgte entweder sofort oder nach Aufbewahrung bei -20°C mit folgenden Methoden:
Von dem synthetischen Peptidsubstrat S-2288 (D-H-Ile-Pro-Arg-p-Nitroanilin) der Firma Kabi Diagnostica wird durch das t-PA p-Nitroanilin als Reaktionsprodukt gebildet. Die Aktivität von t-PA ist zur Bildung von p-Nitroanilin proportional, die bei […], 37°C, gemessen wird.
Die spektrophotometrische Bestimmung der Enzymkinetik wurde mit einem ACP-5010-Analysengerät der Firma Eppendorf automatisch durchgeführt.
Die Aktivität des Enzyms wurde anhand dieses vorgegebenen Standards berechnet. Eine t-PA-Standardreihe von 1-15 µg/ml wurde mit einem Laborstandard hergestellt, der zu 72% aus 1-kettigem Material besteht.
Die Substratlösung (100 mM Tris/106 mM NaCl) wurde in einer Konzentration von 50 mM eingesetzt.

The subject of assay [2] is CHO-Zellen. The experiment in a line: Cell growth / cell division of transformed CHO cells. The assay is classed as cell-based, chinesische Hamster. As for the experimental part: as §2, §5
(§7) Für die Produktion von t-PA in serumfreiem Medium wurden die Zellen zuvor 3-4 Tage in einem Medium von 1-2% FKS adaptiert, wieder abzentrifugiert und das Zellpellet in serumfreiem Medium resuspendiert und anschließend in 2 cm² 24 Wells-Platten in einer Zelldichte von 0,4-0,5 x 10⁶ Zellen/ml überführt.

The test system of assay [3] is CHO-Zellen. The experiment in a line: t-PA production in transformed CHO cells, medium and determination method not stated. The assay is classed as cell-based, chinesische Hamster.
Source text: as §1, §2, §3, §4
Aliquots von Zellüberständen und Zellextrakten wurden zu verschiedenen Zeitpunkten abgenommen bzw. hergestellt. Die Messung der Proben erfolgte entweder sofort oder nach Aufbewahrung bei -20°C mit folgenden Methoden: […]

The test system of assay [4] is CHO-Zellen. In words: t-PA production in transformed CHO cells, serum-free medium (DCA or determination method not given). The assay is classed as cell-based, chinesische Hamster. To be noted: serum-free medium (Abb. 18).
Source text: Diese Zell-Linie, eine Dihydrofolat Reduktase negative Mutante (DHFR-), ist für eine DHFR-abhängige Selektion der transfizierten Zellklone geeignet. […] Die Promotorregion für das in Frage kommende Gen und für das DHFR-Gen stammt aus SV 40 und die Terminationsregion für beide Gene von einem Hepatitis B-Oberflächenantigen.
Im folgenden Beispiel wird ein nachseziertes DMEM/Ham's F 12 Medium (1:1) (Gibco) als serumfreies Medium verwendet. Als Zusatz wird fötales Kälberserum (FKS) in einer Konzentration von 7,5% oder 1-2% verwendet.
as §2, §3, §4, §7, §6
Die Aktivität des Enzyms wurde anhand dieses vorgegebenen Standards berechnet.

Assay [5] deals with CHO-Zellen. The experiment in a line: t-PA production in transformed CHO cells, serum-free medium, ELISA. The assay is classed as cell-based, chinesische Hamster. The note with it: CHO, Elisa, 1 ml supernatant vs control (0%), read-out: % Steigerung der t-PA-Synthese.
Source text: as §1
Als serumfreies Medium stehen verschiedene bekannte Produkte zur Verfügung (siehe z.B. BMFT-Statusseminar 12, 13. November 1985, Bundesministerium für Forschung und Technologie, 5300 Bonn 2, Seite 111-120). Im folgenden Beispiel wird ein nachseziertes DMEM/Ham's F 12 Medium (1:1) (Gibco) als serumfreies Medium verwendet. Als Zusatz wird fötales Kälberserum (FKS) in einer Konzentration von 7,5% oder 1-2% verwendet.
as §2, §3
In den folgenden Beispielen wurden, um die Stimulierung der t-PA-Synthese hervorzurufen, Zellen einer exponentiell wachsenden Kultur entnommen und in Plastikröhrchen (Falcon) 10 Min. bei 1000 x g in einer Beckmann T 3-6 Zentrifuge abzentrifugiert. Nach Dekantieren des Überstandes wurde das Zellpellet mit frischem Medium resuspendiert. […]
Mit Hilfe eines ELISA (Enzyme-linked-immuno-sorbent-assay) wurden die t-PA-Proben des Überstandes und des Zellextraktes quantitativ bestimmt. […]
In general terms: ELISA stands for enzyme-linked immunosorbent assay.

Assay [6] has as its system Bowes-Melanoma-Zellen. To be noted: Kooistra et al.; cited from earlier work.
The subject of assay [7] is CHO-Zellen. The experiment in a line: Extracellular protein content and [3H]-leucine incorporation in CHO cells, serum-free medium. The assay is classed as cell-based, chinesische Hamster.

Turning to `C[C@@]1(CO)[C@H](O)CC[C@@]2(C)[C@H]1CC[C@H]1C[C@@H]3C[C@@]12CC[C@]3(O)CO` [Aphidicolin], the activation at 1 µM was 40.2% in assay [1] (CHO, 24 h); 59.9% in assay [1] (CHO, 48 h); 32.8% in assay [1] (CHO, 72 h); 14.7% in assay [1] (CHO, 96 h); 51.3% in assay [5] (Table 13, 1 µM, 144 h after medium change); 36.7% in assay [5] (Tables 13/14, 1 µM, 96 h after medium change). The activation at 1 µM in assay [5] (Tables 13/14, 1 µM, 120 h after medium change) stood at 42%. In assay [2] (CHO, 1 µM, after 24 h treatment, read-out: Hemmung des Zellwachstums), the inhibition at 1 µM lay within 5 to 10%. Also, the t-PA-Ausbeute gesteigert in assay [3] (after 24 h, continued incubation with the substance) is reported as 44,9 ± 13,9%. The “intrazelluläre t-PA-Konzentration erhöht” value in assay [3] (during the 24 h incubation with the substance) is reported as “ca. 30%”. In assay [4], the “Maximum des Effekts nach Mediumwechsel” value is given as 48 h.
On to `CCCC(=O)Nc1ncnc2c1ncn2[C@@H]1O[C@@H]2COP(=O)(O)O[C@H]2[C@H]1OC(=O)CCC` [Dibutyryl c-AMP], for which the “Einfluß auf die Synthese von t-PA” value in assay [6] was “keinen Einfluß”.
For the compound `CCC(=O)O` [Propionsäure], in assay [1] (CHO, read-out: für die t-PA-Stimulierung notwendige Konzentrationen), the minimal effective concentration lay within 5000 to 10000 µM. The “% Steigerung der t-PA-Synthese Durchschnitt” value in assay [1] (Table 3, mean ± SE, n = 3-24, production runs of 3 to 4 days, acids added day 0 to 3, 1 ml supernatant vs control (0%), 7,5% FKS) is recorded as 28,0 ± 2,5%. The “% Steigerung der t-PA-Synthese Maximum” value in assay [1] (Table 3, single sample, 1 ml supernatant vs control (0%), 7,5% FKS, its concentration, addition and sampling day in brackets in Tables 3/3A) was 45,5%. The “optimaler Dosisbereich” value in assay [1] (Table 3, stimulation of t-PA synthesis, medium with 7,5% FKS, bracketed value = concentration of the single (maximum) sample) is 5-10 mM (10 mM). Also, the “Steigerung der t-PA-Produktion” value in assay [1] (Table 4, Applikationstag 0, after 48 h growth, 7,5% FKS, 1 mM or 5 mM, 1 ml supernatant vs control (0%), mean ± SE) is listed as 28,7 ± 9,3%; in assay [1] (Table 4, Applikationstag 1, after 48 h growth, 7,5% FKS, 1 mM or 5 mM, 1 ml supernatant vs control (0%), mean ± SE), 24,4 ± 4,1%; in assay [1] (day 4, medium with 7,5% FKS (Abb. 7)), 31,8%. In assay [1] (difference to Buttersäure), the “prozentuale Steigerung niedriger als Buttersäure” value is listed as “ca. 14%”. Moreover, in assay [2] (compared with Buttersäure), the “Hemmung des Zellwachstums” value is “in geringerem Maße”. The “Einbau von [³H]-Leucin” value in assay [7] was “nur geringfügig gesteigert”. Also, the “extrazellulärer Proteingehalt gegenüber der Kontrolle” value in assay [7] is “nur gering erhöht”.
